ChEMBL document CHEMBL3885861, “Open TG-GATES”

Species: Rattus norvegicus
Experiment: Open TG-GATES - Regimen: Single
Format: toxicity, organism-based, Sprague-Dawley
Parameters: regimen Single, gender Male, age 6 weeks
Conditions: in vivo, po, 0 mg/kg, route gavage, dose level Control; for APTT / Bas / Eos / Fbg / Hb / Ht / Lym / MCH / MCHC / MCV / Mono / Neu / PT / Plat / RBC / Ret / WBC: tissue Blood; for KIDNEY_L / KIDNEY_R / KIDNEY_TOTAL: tissue Kidney; for LIVER: tissue Liver; for A/G / ALP / ALT / AST / BUN / CRE / Ca / Cl / DBIL / GLC / IP / K / LDH / Na / PL / RALB / TBIL / TC / TG / TP / gamma-GTP: tissue Plasma

CN1C(=O)CCS(=O)(=O)C1c1ccc(Cl)cc1 (stereo unspecified) [CHLORMEZANONE] was tested. Which TERMINAL_BW (9 h) did it give?
Its TERMINAL_BW is 227.6 g.

And the APTT (9 h)?
The APTT was 15.1 s.

What about the Bas (9 h) of the same compound?
Its Bas is 0%.

What about the Eos (9 h) of the same compound?
The Eos was 1%.

What about the Fbg (9 h) of the same compound?
The Fbg was 331.4 mg/dL.

And the Hb (9 h)?
Its Hb is 13.4 g/dL.

And the Ht (9 h)?
Its Ht is 39.9%.

What about the Lym (9 h) of the same compound?
Its Lym is 74.4%.

What about the MCH (9 h) of the same compound?
The MCH was 21.2 pg.

And the MCHC (9 h)?
The MCHC was 33.5%.

And the MCV (9 h)?
Its MCV is 63.1 fL.

And the Mono (9 h)?
The Mono was 3.4%.

And the Neu (9 h)?
The Neu was 20.6%.

And the PT (9 h)?
Its PT is 13.2 s.

And the Plat (9 h)?
Its Plat is 116.8 x10_4/uL.

And the RBC (9 h)?
The RBC was 631.4 x10_4/ul.

What about the Ret (9 h) of the same compound?
The Ret was 7.5%.

What about the WBC (9 h) of the same compound?
The WBC was 79.8 x10_2/uL.

And the KIDNEY_L (9 h)?
Its KIDNEY_L is 0.9 g.

What about the KIDNEY_R (9 h) of the same compound?
Its KIDNEY_R is 0.9 g.

What about the KIDNEY_TOTAL (9 h) of the same compound?
The KIDNEY_TOTAL was 1.8 g.

And the LIVER (9 h)?
Its LIVER is 8.6 g.

What about the A/G (9 h) of the same compound?
The A/G was 0.9.

And the ALP (9 h)?
The ALP was 1793 IU/L.

What about the ALT (9 h) of the same compound?
Its ALT is 38.6 IU/L.

And the AST (9 h)?
Its AST is 67.8 IU/L.

And the BUN (9 h)?
The BUN was 10.8 mg/dL.

And the CRE (9 h)?
The CRE was 0.2 mg/dL.

And the Ca (9 h)?
Its Ca is 11.1 mg/dL.

What about the Cl (9 h) of the same compound?
Its Cl is 105 meq/L.

And the DBIL (9 h)?
The DBIL was 0.022 mg/dL.

And the GLC (9 h)?
Its GLC is 192.6 mg/dL.

What about the IP (9 h) of the same compound?
Its IP is 11.3 mg/dL.

And the K (9 h)?
The K was 3.8 meq/L.

What about the LDH (9 h) of the same compound?
Its LDH is 51.4 IU/L.

What about the Na (9 h) of the same compound?
Its Na is 143 meq/L.

And the PL (9 h)?
Its PL is 132 mg/dL.

What about the RALB (9 h) of the same compound?
Its RALB is 2.6 g/dL.

And the TBIL (9 h)?
The TBIL was 0.044 mg/dL.

And the TC (9 h)?
Its TC is 74.8 mg/dL.

And the TG (9 h)?
Its TG is 52.6 mg/dL.

And the TP (9 h)?
Its TP is 5.5 g/dL.

And the gamma-GTP (9 h)?
Its gamma-GTP is 1 IU/L.

And the TERMINAL_BW (24 h)?
Its TERMINAL_BW is 235.8 g.

And the APTT (24 h)?
The APTT was 17.4 s.

What about the Bas (24 h) of the same compound?
The Bas was 0.2%.

And the Eos (24 h)?
Its Eos is 0.8%.

And the Fbg (24 h)?
The Fbg was 283.8 mg/dL.

What about the Hb (24 h) of the same compound?
The Hb was 13.4 g/dL.

And the Ht (24 h)?
Its Ht is 39.1%.

What about the Lym (24 h) of the same compound?
The Lym was 78.8%.

And the MCH (24 h)?
The MCH was 21.6 pg.

And the MCHC (24 h)?
Its MCHC is 34.4%.

And the MCV (24 h)?
Its MCV is 62.9 fL.

And the Mono (24 h)?
The Mono was 2.8%.

What about the Neu (24 h) of the same compound?
Its Neu is 17%.

And the PT (24 h)?
Its PT is 13 s.

And the Plat (24 h)?
Its Plat is 115.7 x10_4/uL.

What about the RBC (24 h) of the same compound?
Its RBC is 621 x10_4/ul.

And the Ret (24 h)?
The Ret was 7.2%.

What about the WBC (24 h) of the same compound?
Its WBC is 77.6 x10_2/uL.

And the KIDNEY_L (24 h)?
Its KIDNEY_L is 1 g.

What about the KIDNEY_R (24 h) of the same compound?
The KIDNEY_R was 1 g.

What about the KIDNEY_TOTAL (24 h) of the same compound?
Its KIDNEY_TOTAL is 2 g.

And the LIVER (24 h)?
Its LIVER is 10.6 g.

What about the A/G (24 h) of the same compound?
Its A/G is 0.9.

And the ALP (24 h)?
The ALP was 1848.2 IU/L.

What about the ALT (24 h) of the same compound?
The ALT was 51.8 IU/L.

What about the AST (24 h) of the same compound?
Its AST is 87 IU/L.

And the BUN (24 h)?
Its BUN is 16.4 mg/dL.

And the CRE (24 h)?
The CRE was 0.2 mg/dL.

What about the Ca (24 h) of the same compound?
Its Ca is 11.5 mg/dL.

What about the Cl (24 h) of the same compound?
Its Cl is 105.2 meq/L.

And the DBIL (24 h)?
The DBIL was 0.022 mg/dL.

And the GLC (24 h)?
The GLC was 193.4 mg/dL.

And the IP (24 h)?
Its IP is 8.1 mg/dL.

And the K (24 h)?
The K was 4.3 meq/L.

And the LDH (24 h)?
The LDH was 69.4 IU/L.

What about the Na (24 h) of the same compound?
Its Na is 142 meq/L.

And the PL (24 h)?
Its PL is 141.6 mg/dL.

And the RALB (24 h)?
The RALB was 2.7 g/dL.

What about the TBIL (24 h) of the same compound?
Its TBIL is 0.028 mg/dL.

What about the TC (24 h) of the same compound?
Its TC is 77.4 mg/dL.

What about the TG (24 h) of the same compound?
The TG was 91.8 mg/dL.

And the TP (24 h)?
The TP was 5.7 g/dL.

And the gamma-GTP (24 h)?
Its gamma-GTP is 1 IU/L.
